Consider 5 compounds from US10414811B2, “Protease-resistant lipidated GLP-1 analogs” (MEDIMMUNE LIMITED, priority 2015, dated 2019).

Type in all cases: cell-based
The target in assay [1] is T1, human GLP-1 receptor (GLP-1R) (Homo sapiens, UniProt P43220).
T1 construct: expressed in transfected cells
The assay can be described thus: cAMP assay, human GLP-1R cells. The method in brief:
(§1)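 Peptide-stimulated cAMP measured by two-step HTRF after a 30 min room-temperature incubation with receptor-expressing cells (hGLP-1R, hGIPR at 1×10^5 cells/ml; hGCGR at 2×10^5 cells/ml). Duplicate dilutions; EC50 from 4-parameter logistic fit of % Delta F.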

Assay [2] concerns the target T2, human glucagon receptor (GCGR) (Homo sapiens, UniProt P47871).
T2 construct: expressed in transfected cells
Kind of assay: cAMP assay, human GCGR cells. Particulars: cAMP assay. The gist of the method:
as §1

Assay [3] deals with T3, human glucose-dependent insulinotropic peptide receptor (GIPR) (Homo sapiens, UniProt P48546).
T3 construct: expressed in transfected cells
T3 sequence (P48546 22-466): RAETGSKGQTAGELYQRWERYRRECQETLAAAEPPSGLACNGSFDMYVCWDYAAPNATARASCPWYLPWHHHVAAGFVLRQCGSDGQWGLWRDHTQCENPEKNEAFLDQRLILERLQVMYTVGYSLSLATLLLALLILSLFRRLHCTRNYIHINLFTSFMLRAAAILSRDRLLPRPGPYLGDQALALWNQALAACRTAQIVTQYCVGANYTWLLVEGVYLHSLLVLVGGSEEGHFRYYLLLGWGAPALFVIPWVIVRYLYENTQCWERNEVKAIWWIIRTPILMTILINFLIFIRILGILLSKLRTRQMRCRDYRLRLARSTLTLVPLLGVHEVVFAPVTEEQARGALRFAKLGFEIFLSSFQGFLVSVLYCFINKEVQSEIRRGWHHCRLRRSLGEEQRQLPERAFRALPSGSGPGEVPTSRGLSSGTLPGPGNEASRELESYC
The assay can be described thus: cAMP assay, human GIPR cells. As to conditions: cAMP assay. The method in brief:
as §1

In the next assay the target is T4, GLP-1R (INS1e assay) (Rattus norvegicus, UniProt P32301).
T4 construct: endogenous in cells; host or cells: INS-1E cells
T4 sequence (P32301 22-463): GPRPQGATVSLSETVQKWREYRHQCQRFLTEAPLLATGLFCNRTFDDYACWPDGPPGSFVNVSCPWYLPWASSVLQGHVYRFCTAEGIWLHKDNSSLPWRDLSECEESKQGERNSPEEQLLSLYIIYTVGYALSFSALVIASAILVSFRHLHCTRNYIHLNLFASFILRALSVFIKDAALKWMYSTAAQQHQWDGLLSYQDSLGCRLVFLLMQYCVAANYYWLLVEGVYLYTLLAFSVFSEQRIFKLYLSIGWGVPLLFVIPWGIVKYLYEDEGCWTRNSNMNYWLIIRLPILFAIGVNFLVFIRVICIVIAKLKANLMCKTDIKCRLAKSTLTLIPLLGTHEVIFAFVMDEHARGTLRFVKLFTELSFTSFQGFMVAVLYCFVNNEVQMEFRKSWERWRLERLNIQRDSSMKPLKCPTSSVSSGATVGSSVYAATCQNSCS
The assay can be described thus: INS1e assay, cAMP activity at GLP-1R. As to conditions: mono-lipidated peptides. The method in brief: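 cAMP was quantified by two-step HTRF, using anti-cAMP cryptate donor and cAMP-d2 acceptor, each diluted 1/20 in conjugate and lysis buffer. EC50 values of the synthetic peptides were derived from the cAMP readout.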

[4] abbreviates: cAMP assay, first determination (n1), read-out: Primary assay EC50 GLP-1R n1.
The mark [5] stands for this setting: cAMP assay, second determination (n2), read-out: Primary assay EC50 GLP-1R n2.
Where [6] appears, read: mean of n1 and n2, read-out: Mean pM GLP-1R.
Where [7] appears, read: Primary assay EC50 Gluc-R (n1), first determination (n1).
[8] abbreviates: read-out: Primary assay EC50 Gluc-R (n2), second determination (n2).
Setting [9] is: Primary assay EC50 GIP-R (n1), first determination (n1).
The mark [10] stands for this setting: read-out: Primary assay EC50 GIP-R (n2), second determination (n2).
Setting [11] is: mean of n1 and n2, read-out: INS1e assay EC50 Mean pM GLP-1R.
Where [12] appears, read: replicate n1, read-out: INS1e assay EC50 GLP-1R n1.
Where [13] appears, read: replicate n2, read-out: INS1e assay EC50 GLP-1R n2.
Where [14] appears, read: first determination (n1), read-out: Primary assay EC50 Gluc-R (n1).
The mark [15] stands for this setting: second determination (n2), read-out: Primary assay EC50 Gluc-R (n2).
Where [16] appears, read: first determination (n1), read-out: Primary assay EC50 GIP-R (n1).
The mark [17] stands for this setting: second determination (n2), read-out: Primary assay EC50 GIP-R (n2).

Each structure is given as a SMILES string. Where two headings read alike, the source gives them in different places. Where only a bound is given, the exact number is not on record here.

T2 sequence (P47871 26-477): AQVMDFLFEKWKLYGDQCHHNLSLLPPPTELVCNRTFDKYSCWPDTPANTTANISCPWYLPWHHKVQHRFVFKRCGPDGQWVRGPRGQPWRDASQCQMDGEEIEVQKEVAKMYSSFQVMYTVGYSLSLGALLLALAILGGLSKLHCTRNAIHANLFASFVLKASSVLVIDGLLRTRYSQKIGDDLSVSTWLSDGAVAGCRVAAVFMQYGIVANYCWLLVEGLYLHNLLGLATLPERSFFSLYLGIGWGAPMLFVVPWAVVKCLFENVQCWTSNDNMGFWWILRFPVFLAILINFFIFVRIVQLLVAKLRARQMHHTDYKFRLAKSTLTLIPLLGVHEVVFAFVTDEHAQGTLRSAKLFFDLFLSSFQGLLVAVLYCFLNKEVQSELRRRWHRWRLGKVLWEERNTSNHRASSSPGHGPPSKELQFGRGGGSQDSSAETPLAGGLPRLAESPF
T1 sequence (P43220 24-463): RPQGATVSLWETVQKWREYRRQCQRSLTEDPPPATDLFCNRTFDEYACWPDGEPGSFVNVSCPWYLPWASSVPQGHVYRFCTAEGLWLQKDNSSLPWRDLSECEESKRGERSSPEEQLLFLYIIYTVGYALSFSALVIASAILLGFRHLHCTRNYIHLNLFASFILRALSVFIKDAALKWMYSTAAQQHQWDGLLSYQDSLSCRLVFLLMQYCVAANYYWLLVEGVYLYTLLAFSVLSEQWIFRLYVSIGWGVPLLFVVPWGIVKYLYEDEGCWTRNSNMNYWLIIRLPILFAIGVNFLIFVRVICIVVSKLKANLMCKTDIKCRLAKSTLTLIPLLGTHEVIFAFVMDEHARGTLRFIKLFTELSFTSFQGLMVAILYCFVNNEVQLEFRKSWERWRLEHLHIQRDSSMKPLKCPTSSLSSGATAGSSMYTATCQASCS

`CC[C@H](C)[C@H](NC(=O)[C@](C)(Cc1ccccc1)NC(=O)[C@H](CCC(=O)O)NC(=O)[C@H](CCCCNC(=O)CCCCCNC(=O)CCCCCNC(=O)CCCCCCCCCCCOc1ccc(C(=O)O)cc1)NC(=O)[C@H](C)NC(=O)[C@H](C)NC(=O)[C@H](CCC(=O)O)NC(=O)CNC(=O)[C@H](CCC(=O)O)NC(=O)[C@H](CC(C)C)NC(=O)[C@](C)(Cc1ccccc1)NC(=O)[C@H](CO)NC(=O)[C@](C)(CO)NC(=O)[C@@H](NC(=O)[C@H](CC(=O)O)NC(=O)[C@H](CO)NC(=O)[C@@H](NC(=O)[C@](C)(Cc1ccccc1)NC(=O)[C@H](CO)NC(=O)CNC(=O)[C@H](CCC(=O)O)NC(=O)C(C)(C)NC(=O)[C@@H](N)Cc1c[nH]cn1)[C@@H](C)O)C(C)C)C(=O)N[C@@H](C)C(=O)N[C@@](C)(Cc1ccccc1)C(=O)N[C@H](C(=O)N[C@H](C(=O)N[C@@](C)(CCCCN)C(=O)NCC(=O)NCC(N)=O)C(C)C)C(C)C` [compound 141]: the EC50 in assay [1] (setting [4]) was 8.7 pM; in assay [1] (setting [5]), 5 pM; in assay [1] (setting [6]) it was 6.9 pM; in assay [2] (setting [7]), at least 27 nM; in assay [2] (setting [8]), at least 27 nM; in assay [3] (setting [9]), at least 27 nM. In addition, the EC50 in assay [3] (setting [10]) is at least 27 nM; at GLP-1R (INS1e assay) (setting [11]), 41 pM; on GLP-1R (INS1e assay) (setting [12]), 44.7 pM; on GLP-1R (INS1e assay) (setting [13]), 36.7 pM.
For the compound `CC[C@H](C)[C@H](NC(=O)[C@](C)(Cc1ccccc1)NC(=O)[C@H](CCC(=O)O)NC(=O)[C@H](CCCCNC(=O)COCCOCCNC(=O)CCCCCCCCCCCOc1ccc(C(=O)O)cc1)NC(=O)[C@H](C)NC(=O)[C@H](C)NC(=O)[C@H](CCC(=O)O)NC(=O)CNC(=O)[C@H](CCC(=O)O)NC(=O)[C@H](CC(C)C)NC(=O)[C@](C)(Cc1ccccc1)NC(=O)[C@H](CO)NC(=O)[C@](C)(CO)NC(=O)[C@@H](NC(=O)[C@H](CC(=O)O)NC(=O)[C@H](CO)NC(=O)[C@@H](NC(=O)[C@](C)(Cc1ccccc1)NC(=O)[C@H](CO)NC(=O)CNC(=O)[C@H](CCC(=O)O)NC(=O)C(C)(C)NC(=O)[C@@H](N)Cc1c[nH]cn1)[C@@H](C)O)C(C)C)C(=O)N[C@@H](C)C(=O)N[C@@](C)(Cc1ccccc1)C(=O)N[C@H](C(=O)N[C@H](C(=O)N[C@@](C)(CCCCN)C(=O)NCC(=O)NCC(N)=O)C(C)C)C(C)C` [compound 143], the EC50 is 12 pM in assay [1] (setting [4]); 5.2 pM in assay [1] (setting [5]); 8.6 pM in assay [1] (setting [6]); at least 27 nM in assay [2] (setting [7]); at least 27 nM in assay [2] (setting [8]); at least 27 nM in assay [3] (setting [9]). In addition, the EC50 in assay [3] (setting [10]) was at least 27 nM; on GLP-1R (INS1e assay) (setting [11]), 34 pM; on GLP-1R (INS1e assay) (setting [12]), 45.1 pM; on GLP-1R (INS1e assay) (setting [13]), 22.7 pM.
With `CCCCCCCCCCCCCCCCCC(=O)NCCOCCOCC(=O)NCCOCCOCC(=O)NCCCC[C@H](NC(=O)[C@H](C)NC(=O)[C@H](C)NC(=O)[C@H](CCC(=O)O)NC(=O)CNC(=O)[C@H](CCC(=O)O)NC(=O)[C@H](CC(C)C)NC(=O)[C@](C)(Cc1ccccc1)NC(=O)[C@H](CO)NC(=O)[C@](C)(CO)NC(=O)[C@@H](NC(=O)[C@H](CC(=O)O)NC(=O)[C@H](CO)NC(=O)[C@@H](NC(=O)[C@](C)(Cc1ccccc1)NC(=O)[C@H](CO)NC(=O)CNC(=O)[C@H](CCC(=O)O)NC(=O)C(C)(C)NC(=O)[C@@H](N)Cc1c[nH]cn1)[C@@H](C)O)C(C)C)C(=O)N[C@@H](CCC(=O)O)C(=O)N[C@@](C)(Cc1ccccc1)C(=O)N[C@H](C(=O)N[C@@H](C)C(=O)N[C@@](C)(Cc1ccccc1)C(=O)N[C@H](C(=O)N[C@H](C(=O)N[C@@](C)(CCCCN)C(=O)NCC(=O)NCC(N)=O)C(C)C)C(C)C)[C@@H](C)CC` [compound 153], the EC50 in assay [1] (setting [4]) is 7.9 pM; in assay [1] (setting [5]), 5 pM; in assay [1] (setting [6]), 6.4 pM; in assay [2] (setting [14]), at least 27 nM; in assay [2] (setting [15]), at least 27 nM; in assay [3] (setting [16]) it was at least 27 nM. The EC50 in assay [3] (setting [17]) was at least 27 nM; on GLP-1R (INS1e assay) (setting [11]) it was 58 pM; on GLP-1R (INS1e assay) (setting [12]), 55 pM; at GLP-1R (INS1e assay) (setting [13]) it was 61.2 pM.
Consider `CCCCCCCCCCCCCCCCCC(=O)NCCOCCOCC(=O)NCCOCCOCC(=O)NCCOCCOCC(=O)NCCCC[C@H](NC(=O)[C@H](C)NC(=O)[C@H](C)NC(=O)[C@H](CCC(=O)O)NC(=O)CNC(=O)[C@H](CCC(=O)O)NC(=O)[C@H](CC(C)C)NC(=O)[C@](C)(Cc1ccccc1)NC(=O)[C@H](CO)NC(=O)[C@](C)(CO)NC(=O)[C@@H](NC(=O)[C@H](CC(=O)O)NC(=O)[C@H](CO)NC(=O)[C@@H](NC(=O)[C@](C)(Cc1ccccc1)NC(=O)[C@H](CO)NC(=O)CNC(=O)[C@H](CCC(=O)O)NC(=O)C(C)(C)NC(=O)[C@@H](N)Cc1c[nH]cn1)[C@@H](C)O)C(C)C)C(=O)N[C@@H](CCC(=O)O)C(=O)N[C@@](C)(Cc1ccccc1)C(=O)N[C@H](C(=O)N[C@@H](C)C(=O)N[C@@](C)(Cc1ccccc1)C(=O)N[C@H](C(=O)N[C@H](C(=O)N[C@@](C)(CCCCN)C(=O)NCC(=O)NCC(N)=O)C(C)C)C(C)C)[C@@H](C)CC` [compound 154], for which the EC50 is 2.8 pM in assay [1] (setting [4]); 2.3 pM in assay [1] (setting [5]); 2.5 pM in assay [1] (setting [6]); at least 26 nM in assay [2] (setting [14]); at least 26 nM in assay [2] (setting [15]); at least 26 nM in assay [3] (setting [16]). The EC50 in assay [3] (setting [17]) is at least 26 nM; at GLP-1R (INS1e assay) (setting [11]) it was 25 pM; on GLP-1R (INS1e assay) (setting [12]), 32.3 pM; at GLP-1R (INS1e assay) (setting [13]), 17.1 pM.
With `CCCCCCCCCCCC(=O)N[C@@H](CCC(=O)N[C@@H](CCC(=O)N[C@@H](CCC(=O)NCCCC[C@H](NC(=O)[C@@H](NC(=O)[C@@H](NC(=O)[C@](C)(Cc1ccccc1)NC(=O)[C@H](C)NC(=O)[C@@H](NC(=O)[C@](C)(Cc1ccccc1)NC(=O)[C@H](CCC(=O)O)NC(=O)[C@](C)(CCCCN)NC(=O)[C@H](C)NC(=O)[C@H](C)NC(=O)[C@H](CCC(=O)O)NC(=O)CNC(=O)[C@H](CCC(=O)O)NC(=O)[C@H](CC(C)C)NC(=O)[C@](C)(Cc1ccccc1)NC(=O)[C@H](CO)NC(=O)[C@](C)(CO)NC(=O)[C@@H](NC(=O)[C@H](CC(=O)O)NC(=O)[C@H](CO)NC(=O)[C@@H](NC(=O)[C@](C)(Cc1ccccc1)NC(=O)[C@H](CO)NC(=O)CNC(=O)[C@H](CCC(=O)O)NC(=O)C(C)(C)NC(=O)[C@@H](N)Cc1c[nH]cn1)[C@@H](C)O)C(C)C)[C@@H](C)CC)C(C)C)C(C)C)C(=O)NCC(=O)NCC(N)=O)C(=O)O)C(=O)O)C(=O)O` [compound 166], the EC50 was 7.2 pM in assay [1] (setting [4]); 2.7 pM in assay [1] (setting [5]); 4.9 pM in assay [1] (setting [6]); at least 26 nM in assay [2] (setting [14]); at least 26 nM in assay [2] (setting [15]); at least 26 nM in assay [3] (setting [16]). In addition, the EC50 in assay [3] (setting [17]) was at least 26 nM; at GLP-1R (INS1e assay) (setting [11]) it was 460 pM; at GLP-1R (INS1e assay) (setting [12]), 233 pM; at GLP-1R (INS1e assay) (setting [13]) it was 687 pM.
